Results taken from patent US20230083417A1, “THERAPEUTIC COMBINATION FOR THE TREATMENT OF BRAIN ISCHEMIA AND SAID THERAPEUTIC COMBINATION FOR USE IN THE TREATMENT OF BRAIN ISCHEMIA” (Universiteit Maastricht, priority 2020, published 2023).
“Also recorded” adds a separate entry of the source.

Assays:
[1] = tested on: Human Brain Microvascular Endothelial Cells (HBMEC); test: HBMEC subjected to hypoxia (OGD), cell viability by MTT (Example 3); type: cell-based; details: 6 h hypoxia, 24 h reperfusion; GKT136901 0.1 μM, BAY58-2667 0.01 μM, STMC 0.3 μM, alone or combined
Description: Human Brain Microvascular Endothelial Cells (HBMEC) Subjected to Hypoxia. —HBMEC (Cell systems, USA) between passage 3 and 9 were cultured using specialized cell medium enriched with 5% fetal bovine serum. HBMECs were seeded (6×10^4 cells/ml) in 12 wells-plates and incubated during 24 h at 37° C. Later, cell medium was replaced for non-FBS containing medium followed by 6 h of hypoxia (94.8% N2, 0.2% O2 and 5% CO2) at 37° C. using hypoxia workstations. The hypoxia period was followed by 24 h of reperfusion in presence or absence of GKT136901 (GKT, 0.1 μM; NOXi), BAY58-2667 (BAY58, 0.01 μM; sGCa) or S-methyl-1-thiocitrulline (STMC, 0.3 μM; NOSi) or a combination of the three. Control cells were exposed to normoxia (75% N2, 20% O2 and 5% CO2), normal glucose concentration and enriched medium during the hypoxia period (Basal). After 24 h reperfusion, cell viability was assessed using the colorimetric MTT assay. MTT solution (5 mg/ml) was added to each well (100 μl/ml) and incubated for 2 h at 37° C. The formazan salt formed was solubilized by adding […] DMSO and measured spectrophotometrically at 540 nm.

[2] = tested on: mice subjected to 45 min tMCAO; test: 45 min tMCAO in non-diabetic and STZ-diabetic mice, infarct size; type: in vivo; details: i.p., GKT137831 10 mg/kg, SMTC 1 mg/kg, BAY58-2667 0.03 mg/kg, single or combined
Description: Diabetes was induced in mice (6-9 weeks old) by i.p. injections of streptozotocin (STZ) (Merck Millipore, The Netherlands) dissolved in 0.5M sodium citrate buffer with a final dose of 55 mg/kg during 5 consecutive days. Blood glucose was measured daily for 7 days after the last STZ injection using a glucometer (Contor XT, Ascensia Diabetes Care, The Netherlands). Blood glucose levels higher than 12 mM 7 days after STZ injections were considered diabetic and therefore included in the study. Diabetic mice were monitored daily for any signs of welfare discomfort, and blood glucose levels were followed-up weekly (FIG. 18 (Table S2), FIG. 19 (Table S3)).
Therefore, only the combination therapy was assessed.
After animal sacrificing, brains were quickly removed and cut into four 2 mm thick coronal sections using a mouse brain slicer matrix (Zivic Instruments, The Netherlands). Brain slices were kept at 4° C. during 5 min and later stained using 2% 2,3,5-triphenyltetrazolium (TTC; Sigma-Aldrich, The Netherlands) for 15 min at room temperature in PBS to visualize the infarctions. Indirect infarct volumes were calculated by volumetry (ImageJ software, National Institutes of Health, USA) according to the following equation:
Vindirect (mm^3)=Vinfarct×(1−(Vih−Vch)/Vch)
where the term (Vih−Vch) represents the volume difference between the ischemic hemisphere and the control hemisphere and (Vih−Vch)/Vch expresses this difference as a percentage of the control hemisphere.

[3] = tested on: Human Brain Microvascular Endothelial Cells (HBMECs); test: HBMEC under hypoxic conditions, cell viability by MTT (Example 5); type: cell-based; details: 6 h hypoxia, 24 h re-oxygenation; GKT137831 0.3 μM, SMTC 0.1 μM, BAY 58-2667 0.03 μM, single or combined
Description: HBME cells (Cell systems, USA) between passage 3 and 9 were cultured to ˜95% confluence using a specialized cell medium and grow factors (EGM-2 MV BulletKit, Lonza, The Netherlands) enriched with 5% fetal bovine serum (FBS; Sigma-Aldrich, The Netherlands). Before being subjected to hypoxia, HBMECs were seeded at 6×10^4 cells/ml in 12 wells-plate and incubated for 24 h at 37° C. Then, the cell medium was replaced with non-FBS containing medium (2 ml/well) followed by 6 h of hypoxia (94.8% N2, 0.2% 02 and 5% CO2) at 37° C. using the hypoxia workstations (Ruskin Invivo2 400 station, The Netherlands). […] Control cells were exposed to normoxia (75% N2, 20% O2, and 5% CO2) and enriched medium during the hypoxia period.
24 h post-re-oxygenation, cell viability was assessed using the colorimetric MTT (3-(4,5-dimethylthiazol-2-yl)-2,5-diphenyltetrazolium bromide) assay (24). MTT solution (5 mg/ml) was added (100 μl/ml) and incubated for 2 h at 37° C. The formazan salt formed was solubilized by adding DMSO (250 μl/well) for later measuring spectrophotometrically its optical density at 540 nm.

[4] = tested on: rat hippocampal brain slices; test: Rat hippocampal brain slices, OGD and re-oxygenation, cell viability by MTT; type: cell-based; details: 15 min OGD, 2 h re-oxygenation, GKT136901 0.1 μM, L-NAME 0.3 μM, BAY60-2770 0.01 μM, separately or combined at identical concentrations, vs untreated OGD
Excerpt: Rat Hippocampal Brain Slice Experiments. —2-3 months old adult male Sprague-Dawley rats were used. For hippocampal slices preparation and induction of oxygen deprivation and glucose deprivation (OGD), animals were decapitated and the brains were removed and transferred into ice-cold Krebs bicarbonate dissection buffer containing glucose and sucrose. Thereafter, hippocampi were dissected and sectioned in transverse slices of 250 μm. To stabilize tissue after slicing, slices were transferred to sucrose-free dissection buffer during 45 minutes at 34° C. Then, control group slices were incubated 15 minutes in a Krebs solution. Slices subjected to OGD were incubated in a Krebs buffer pre-bubbled with 95% N2/5% CO2, where 2-deoxyglucose replaced glucose. OGD period was followed by 2 h of re-oxygenation at 37° C. where slices were returned back to an oxygenated Krebs solution containing glucose^8. During the re-oxygenation period, slices were treated with 0.01 μM BAY60-2770 (BAY; sGCa), 0.1 μM GKT136901 (GKT; NOXi) and 0.3 μM L-NAME (LN; NOSi) separately and in combination at identical respective doses of: NOXi and NOSi, NOSi and sGCa, NOXi and sGCa, and NOXi, NOSi and sGCa. Cellular viability was quantified by their ability to reduce MTT. After re-oxygenation, slices were incubated with MTT (0.5 mg/ml) in Krebs bicarbonate solution for 40 minutes at 37° C. The formazan produced was solubilized by adding 200 μl dimethyl sulfoxide, giving a colored compound whose optical density was measured in an ELISA microplate reader at 540 nm^9. The results of these measurements are depicted in FIG. 2, FIG. 4, FIG. 6 and FIG. 7.

[5] = tested on: C57BL/6J mice subjected to middle cerebral artery occlusion (MCAO); test: In vivo MCAO ischemia model (1 h tMCAO), infarct volume by TTC; details: for infarct volume: i.p. 1 h after reperfusion, L-NAME 3 mg/kg, GKT136901 10 mg/kg, BAY60-2770 0.5 μg/kg; for infarct volume / infarct size, single therapy: 24 h; for infarct volume / infarct volume, subthreshold doses and triple combination: alone or combined at identical doses; for infarct volume, subthreshold doses and triple combination: 1 h post-ischemia, i.p., PTU 3 mg/kg, PPZ 1 mg/kg, riociguat 0.004 mg/kg; for infarct size, single therapy: i.p. 1 h post-reperfusion, perphenazine 3 mg/kg, PTU 9 mg/kg, riociguat 0.01 mg/kg
Description: In vivo MCAO Ischemia Model. —C57BL/6J mice were subjected to middle cerebral artery occlusion (MCAO) during 1 h followed by 24 h of reperfusion. Mice were anesthetized with 1.5% isoflurane (Abbott) in a 70% N2O/30% O2 mixture. Core body temperature was maintained at 37° C. The external carotid artery was ligated and a rubber-coated 6.0 nylon monofilament (6021; Doccol) was inserted to occlude the origin of the right MCA for 60 minutes. Then, animals were re-anesthetized and the occluding monofilament was withdrawn to allow for reperfusion^10. L-NAME (NOSi, 3 mg/kg) or propylthiouracil (NOSi, 9 mg/kg), GKT136901 (NOXi, 10 mg/kg) or perphenazine (NOXi, 3 mg/kg) and BAY60-2770 (sGCa, 0.5 μg/kg) or riociguat (sGCs, 0.1 mg/kg), as well as combinations of these compounds were dissolved and vehicle or compound(s) were injected intraperitoneally (i.p.) 1 h after reperfusion. After 23 h of reperfusion animals were sacrificed and brains were quickly removed and cut in 3 2-mm thick coronal sections. The slices were stained for 10 minutes at 37° C. with 2% 2,3,5-triphenyltetrazolium chloride (TTC, Sigma-Aldrich) in PBS to visualize the infarct volume. The results of these measurements are shown in FIG. 1, FIG. 3, FIG. 5 and FIG. 9.
Based on a repurposing strategy, already marketed compounds validated as NOX inhibitors and NOS inhibitors were selected for further pre-clinical experimentation. Similarly, an already approved sGC stimulator was included repurposed for a non-cardiovascular indication. Wildtype mice were subjected to 1 h tMCAO and subsequently treated with each compound separately, in double combination or triple for later assessment of infarct volume 24 h post-stroke (FIG. 15A-G).

O=C(O)CCCCN(CCc1ccccc1OCc1ccc(CCc2ccccc2)cc1)Cc1ccc(C(=O)O)cc1 [BAY58-2667, cinaciguat]
cell viability (MTT) [1]: lower cell viability than the control cells (Basal) | infarct size 24 h post-stroke, non-diabetic mice [2]: no effect was detected | cell viability, normal glucose [3]: no reduction was detected

O=C(O)CCCCN(CCc1cc(F)ccc1OCc1ccc(-c2ccc(C(F)(F)F)cc2)cc1)Cc1ccc(C(=O)O)cc1 [BAY60-2770]
cell viability (MTT reduction) [4]: Neither the NOSi (L-NAME), nor the sGCa (BAY60) alone was able to improve cell viability | cell viability (MTT reduction) ([4]; listed as BAY): did not show improved cell viability | infarct volume [5]: potent activity in reducing the infarct volume | infarct volume ([5]; listed as BAY60): reduced infarct volume

Cc1c2c(=O)n(-c3ccccc3Cl)[nH]c2cc(=O)n1Cc1ccccn1 [GKT136901]
cell viability (MTT reduction) ([4]; listed as GKT): able to restore the cell viability of the hippocampal cells to some extent; also recorded: able to improve cell viability | infarct volume [5]: potent activity in reducing the infarct volume | cell viability (MTT) [1]: only a relatively small improvement in cell viability

CN(C)c1cccc(-c2c3c(=O)n(-c4ccccc4Cl)[nH]c3cc(=O)n2C)c1 [GKT137831]
infarct size 24 h post-stroke, non-diabetic mice [2]: no effect was detected | cell viability, normal glucose [3]: no reduction was detected

COC(=O)[C@@H](N)CCCNC(=N)N[N+](=O)[O-] [L-NAME, N omega-Nitro-L-arginine methyl ester]
cell viability (MTT reduction) [4]: Neither the NOSi (L-NAME), nor the sGCa (BAY60) alone was able to improve cell viability | cell viability (MTT reduction) ([4]; listed as LN): able to restore the cell viability of the hippocampal cells to some extent | infarct volume [5]: potent activity in reducing the infarct volume | infarct volume ([5]; listed as LN): reduced infarct volume

OCCN1CCN(CCCN2c3ccccc3Sc3ccc(Cl)cc32)CC1 [PPZ, perphenazine]
infarct volume, subthreshold doses and triple combination [5]: not able to reduce infarct volume; also recorded: no reduction of infarct volume; also recorded: without effect | infarct size, single therapy [5]: significantly smaller infarct size

CCCc1cc(=O)[nH]c(=S)[nH]1 [PTU, propylthiouracil]
infarct volume, subthreshold doses and triple combination [5]: not able to reduce infarct volume; also recorded: no reduction of infarct volume; also recorded: without effect | infarct size, single therapy [5]: tends to reduce

COC(=O)N(C)c1c(N)nc(-c2nn(Cc3ccccc3F)c3ncccc23)nc1N [Rio, riociguat]
infarct volume, subthreshold doses and triple combination [5]: not able to reduce infarct volume; also recorded: no reduction of infarct volume; also recorded: without effect | infarct size, single therapy [5]: significantly smaller infarct size

CSC(N)=NCCC[C@H](N)C(=O)O [SMTC, S-Methyl-L-thiocitrulline]
cell viability (MTT) [1]: only a relatively small improvement in cell viability | infarct size 24 h post-stroke, non-diabetic mice [2]: no effect was detected | cell viability, normal glucose [3]: no reduction was detected
